Legend:
[1] = biological target: T1, human mGlu2 (Homo sapiens, UniProt Q14416); assay: [3H]-compound A displacement binding, human mGlu2 HEK293 membranes; conditions: Glu2 HEK293, 6 nM [3H]-compound A
T1 construct: expressed in transfected cells; host or cells: HEK293
Experimental: (§1) For [^3H]-compound A (a NAM compound, selective for mGlu2/3 (˜20 fold selective for 2 over 3) vs other mGluRs) binding, membranes from human mGlu2 and mGlu3 HEK293 cells, and also rat cortical membranes, were used. After thawing, membranes were homogenized using an Ultra Turrax homogenizer and suspended in ice-cold binding buffer containing 50 mM Tris-HCl (pH 7.4), 10 mM MgCl2, 2 mM CaCl2. Displacement studies were done using 6 nM of radioligand, except for human mGlu3 membranes where 25 nM was used. Assay mixtures were incubated for 60 min at RT in a volume of 0.5 ml containing […] or 75 μg membrane protein of human mGlu2, human mGlu3 or rat cortex, respectively. Non-specific binding was estimated in the presence of […] compound B (a NAM with IC50˜10 nM against hmGlu2 and IC50˜200 nM against hmGlu3). Filtration was performed using Whatman GF/C filter sheets pre-soaked in 0.1% PEI and a Brandell harvester 96.
(§2) Filters from filters sheets were punched into vials. After the addition of scintillation liquid, radioactivity on the filters was counted in a Liquid Scintillation Analyzer from Perkin Elmer.
(§3) Radioligand competition binding data were calculated as percentage of total binding measured in the absence of test compound. Inhibition curves, plotting percentage of total binding versus the log concentration of the test compound, were generated using the Lexis software. Sigmoid inhibition curves were analyzed using non-linear regression analysis.

[2] = biological target: T2, human mGlu3 (Homo sapiens, UniProt Q14832); assay: [3H]-compound A displacement binding, human mGlu3 HEK293 membranes; conditions: Glu3 HEK293, 25 nM [3H]-compound A
T2 construct: expressed in transfected cells; host or cells: HEK293
Experimental: as §1, §2, §3

[3] = tested on: Glu2-3 rat cortex; assay: [3H]-compound A displacement binding, rat cortical membranes; conditions: 6 nM [3H]-compound A
Experimental: as §1, §2
Radioligand competition binding data were calculated as percentage of total binding measured in the absence of test compound. […] Sigmoid inhibition curves were analyzed using non-linear regression analysis.

[4] = tested on: mGluR2/3; assay: microPET scan, baseline and after compound A pretreatment; assay type: in vivo; conditions: SD rats
Experimental: Data were acquired in a 128×128×95 matrix with a pixel width of 0.475 mm and a slice thickness of 0.796 mm. During PET imaging, rats were kept under gas anesthesia (2.5% isoflurane in oxygen at a flow rate of 1 l/min), and their body temperature was maintained between 36.5 and 37° C. using a heating pad. PET data were analyzed using Pmod software version 3.2 (Pmod, Zurich Switzerland).
Sprague-Dawley rats obtained from Harlan (the Netherlands), were housed in groups of four to six per cage until treatment. They were kept at a constant temperature of 21° C. and at a 12-h light/dark cycle, in which lights were switched on at 8:00 a.m. Animals had unrestricted access to food (Teklad Global 16% Protein Rodent Diet, Harlan, Madison, Wis., USA) and water. All animal experiments were performed in compliance with Belgium laws on animal experimentation and after approval by the local animal ethics committee.
All pretreatment solutions were 1 mg/mL solutions in 20% β-cyclodextrine in saline with a pH ranging between 6 and 8, and sterile filtered over a Millex GV filter prior to use.
For the baseline scan, 36-43 MBq of [^18F]-1 was injected in 3 SD rats weighing 229-251 g in the tail vein, and scanned simultaneously during a 90 min dynamic PET scan. For the pretreatment scan using compound A (a NAM compound, selective for mGlu2/3 (˜20 fold selective for 2 over 3) vs other mGluRs), the same animals were injected with 10 mg/kg compound A s.c. 60 minutes prior to injection of 38-37 MBq [^18F]-1 in the tail vein, and scanned simultaneously during a 90 minutes dynamic PET scan.
For the baseline scan, 39-49 MBq of [^18F]-2 was injected in 3 SD rats weighing 301-310 g in a tail vein, and scanned simultaneously during a 90-min dynamic PET scan. For the pretreatment scan using compound A, the same animals were injected with 10 mg/kg compound A s.c. 60 min prior to injection of 46-50 MBq [^18F]-2 in the tail vein, and scanned simultaneously during a 90 min dynamic PET scan.

T1 sequence (Q14416 19-872): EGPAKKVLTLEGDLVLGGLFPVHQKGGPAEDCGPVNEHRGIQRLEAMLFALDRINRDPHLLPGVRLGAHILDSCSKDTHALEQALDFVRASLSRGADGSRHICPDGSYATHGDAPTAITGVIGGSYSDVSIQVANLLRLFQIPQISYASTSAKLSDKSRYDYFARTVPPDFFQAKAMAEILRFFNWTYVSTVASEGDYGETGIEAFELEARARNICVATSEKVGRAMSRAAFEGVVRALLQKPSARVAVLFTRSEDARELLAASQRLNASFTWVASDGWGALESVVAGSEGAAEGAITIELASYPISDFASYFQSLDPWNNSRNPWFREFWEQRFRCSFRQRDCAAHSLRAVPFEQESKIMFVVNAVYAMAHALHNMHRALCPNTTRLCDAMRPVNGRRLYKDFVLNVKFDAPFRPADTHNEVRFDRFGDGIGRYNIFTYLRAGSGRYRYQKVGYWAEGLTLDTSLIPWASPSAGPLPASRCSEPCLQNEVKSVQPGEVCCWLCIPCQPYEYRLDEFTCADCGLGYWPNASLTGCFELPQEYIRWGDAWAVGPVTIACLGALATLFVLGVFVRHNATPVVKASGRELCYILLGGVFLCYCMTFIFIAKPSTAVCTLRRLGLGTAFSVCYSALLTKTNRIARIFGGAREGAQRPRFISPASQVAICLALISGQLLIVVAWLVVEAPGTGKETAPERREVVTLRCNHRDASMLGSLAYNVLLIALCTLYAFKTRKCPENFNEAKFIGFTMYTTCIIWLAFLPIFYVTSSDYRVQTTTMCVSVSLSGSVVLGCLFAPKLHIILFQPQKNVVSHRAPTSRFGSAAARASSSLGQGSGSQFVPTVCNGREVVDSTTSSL
T2 sequence (Q14832 23-879): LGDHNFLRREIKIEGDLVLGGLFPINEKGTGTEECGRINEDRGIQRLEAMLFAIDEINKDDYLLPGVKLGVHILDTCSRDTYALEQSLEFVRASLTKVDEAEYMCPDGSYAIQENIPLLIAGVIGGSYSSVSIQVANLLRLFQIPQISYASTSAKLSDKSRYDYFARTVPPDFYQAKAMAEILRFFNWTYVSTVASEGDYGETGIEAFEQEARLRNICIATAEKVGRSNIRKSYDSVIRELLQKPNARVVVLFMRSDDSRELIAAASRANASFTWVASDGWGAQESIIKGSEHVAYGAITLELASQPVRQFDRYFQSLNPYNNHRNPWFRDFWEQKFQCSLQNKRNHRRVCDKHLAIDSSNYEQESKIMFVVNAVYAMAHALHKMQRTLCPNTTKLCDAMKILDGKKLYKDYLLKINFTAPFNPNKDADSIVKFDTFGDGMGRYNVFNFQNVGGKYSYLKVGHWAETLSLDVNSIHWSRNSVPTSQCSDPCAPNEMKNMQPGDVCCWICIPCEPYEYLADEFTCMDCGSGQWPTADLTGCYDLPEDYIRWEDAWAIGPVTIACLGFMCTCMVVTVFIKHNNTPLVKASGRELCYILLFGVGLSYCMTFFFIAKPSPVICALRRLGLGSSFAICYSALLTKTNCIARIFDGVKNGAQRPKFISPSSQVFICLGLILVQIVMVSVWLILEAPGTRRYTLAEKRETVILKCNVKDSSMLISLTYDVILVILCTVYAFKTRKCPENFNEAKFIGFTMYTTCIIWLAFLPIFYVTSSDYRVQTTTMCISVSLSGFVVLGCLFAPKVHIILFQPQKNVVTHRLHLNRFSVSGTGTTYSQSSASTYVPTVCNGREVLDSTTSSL

In the case of `C[C@H]1CN(c2ccc(C(F)(F)F)cc2)C(=O)c2c(C#Cc3cnc(N)cc3C[18F])cnn21` [Compound 1], the “Eff Curve” value [1] is reported as 93, the IC50 [1] is reported as 2.75 nM and the “Eff Curve” value [2] is reported as 104. For the same molecule, the IC50 [2] was 7.24 nM, the “Eff Curve” value [3] was 95 and the pIC50 [3] was 8.78. The “Brain uptake after pretreatment with compound A” value ([4]; 10 mg/kg compound A s.c. 60 min before tracer) was “uptake was reduced after pretreatment with compound A”, the “Brain uptake in PET scan, in words” value ([4]; 90 min dynamic PET scan) was “high brain uptake” and the “mGluR2/3 specificity of binding in vivo” value ([4]; PET, baseline vs compound A pretreatment) was “good mGluR2/3 specificity”.
